Experimental data reported in patent publication US10072011B2, “Substituted bridged urea analogs as sirtuin modulators” (GlaxoSmithKline Intellectual Property (No.2) Limited, priority 2014, dated 2018).
Read-outs that look alike come from different tables or passages of the source.

Molecular target: T1, SIRT1 (Homo sapiens, UniProt Q96EB6)
T1 sequence (Q96EB6 1-747): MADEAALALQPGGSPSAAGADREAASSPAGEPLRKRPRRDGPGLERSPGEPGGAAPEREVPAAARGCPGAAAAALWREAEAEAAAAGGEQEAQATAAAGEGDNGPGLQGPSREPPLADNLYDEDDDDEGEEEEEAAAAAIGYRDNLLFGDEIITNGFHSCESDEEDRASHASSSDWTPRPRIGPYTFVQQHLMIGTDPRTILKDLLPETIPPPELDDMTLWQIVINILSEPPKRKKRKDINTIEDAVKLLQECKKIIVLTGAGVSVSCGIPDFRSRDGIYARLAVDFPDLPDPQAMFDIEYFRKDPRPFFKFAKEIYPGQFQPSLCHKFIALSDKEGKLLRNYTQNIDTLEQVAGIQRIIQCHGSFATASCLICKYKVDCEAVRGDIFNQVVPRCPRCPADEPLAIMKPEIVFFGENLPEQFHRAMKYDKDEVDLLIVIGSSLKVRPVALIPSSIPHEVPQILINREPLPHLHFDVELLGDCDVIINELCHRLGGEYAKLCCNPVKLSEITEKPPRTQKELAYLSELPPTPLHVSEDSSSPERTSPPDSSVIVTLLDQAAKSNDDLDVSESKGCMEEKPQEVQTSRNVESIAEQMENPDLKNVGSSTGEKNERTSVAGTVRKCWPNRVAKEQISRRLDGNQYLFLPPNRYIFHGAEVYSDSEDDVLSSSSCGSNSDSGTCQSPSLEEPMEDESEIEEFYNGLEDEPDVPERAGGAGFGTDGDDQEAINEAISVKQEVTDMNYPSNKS
Assay: Trp mass spectrometry assay of SIRT1 activation (Ac-R-H-K-K(Ac)-W-NH2 peptide)
Assay type: biochemical
Conditions: for Emax: 25 min, read-out: TRP MAX RESP (percent maximum fold activation)
In short: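 N-terminal His-tagged human SIRT1, expressed in BL21(DE3) and purified, was incubated 25 min with an acetylated Trp peptide and NAD plus test compound at varying concentrations, then quenched with formic acid. OAADPR or deacetylated peptide was quantified by mass spectrometry versus compound-free control; EC1.5 is the concentration giving 50% activity increase, with percent maximum activation.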

[1] = Trp peptide 0.5 μM, 120 μM βNAD+, 10 nM SIRT1, 25 min at 25° C., relative to control (100%)
[2] = Trp peptide 0.5 μM, 120 μM βNAD+, 10 nM SIRT1, 25 min at 25° C.

SMILES | Emax [1] | TRP Activity (EC1.5, concentration of test compound that results in 150% activation of SIRT1) [2] | Emax
C[C@@H](NC(=O)c1ccc2c(n1)N(C(=O)Nc1cc(OCCN(C)C)ccn1)[C@H]1CCN2C1)C(F)(F)F [Example 268, (4S)—N5-(4-(2-(dimethylamino)ethoxy)pyridin-2-yl)-N7-((R)-1,1,1-trifluoropropan-2-yl)-3,4-dihydro-1,4-methanopyrido[2,3-b][1,4]diazepine-5,7(2H)-dicarboxamide] | > 150% | B (EC1.5 1-25 μM) | 
Cc1nc(NC(=O)N2c3nc(C(=O)N[C@H](C)C(F)(F)F)ccc3N3CC[C@H]2C3)ccc1F [Example 269, (4S)—N5-(5-fluoro-6-methylpyridin-2-yl)-N7-((R)-1,1,1-trifluoropropan-2-yl)-3,4-dihydro-1,4-methanopyrido[2,3-b][1,4]diazepine-5,7(2H)-dicarboxamide] | > 150% | A (EC1.5<1 μM) | 
O=C(NCC(F)(F)F)c1ccc2c(n1)N(C(=O)Nc1cccc[n+]1[O-])[C@H]1CC[N+]2([O-])C1 [Example 275, (4S)-5-((1-oxidopyridin-2-yl)carbamoyl)-7-((2,2,2-trifluoroethyl)carbamoyl)-2,3,4,5-tetrahydro-1H-1,4-methanopyrido[2,3-b][1, 4]diazepine 1-oxide] | > 150% | C (EC1.5>25 μM) | 
C[C@@H](NC(=O)c1ccc2c(n1)N(C(=O)Cc1ccccn1)[C@H]1CCN2C1)C(F)(F)F [Example 276, (4S)-5-(2-(pyridin-2-yl)acetyl)-N—((R)-1,1,1-trifluoropropan-2-yl)-2,3,4,5-tetrahydro-1,4-methanopyrido[2,3-b][1,4]diazepine-7-carboxamide] | < 150% | C (EC1.5>25 μM) | 
O=C(Nc1ccc(Cl)cn1)N1c2nc(S(=O)(=O)NCC(F)(F)F)ccc2N2CC[C@H]1C2 [Example 277, (4S)—N-(5-chloropyridin-2-yl)-7-(N-(2,2,2-trifluoroethyl)sulfamoyl)-3,4-dihydro-1,4-methanopyrido[2,3-b][1,4]diazepine-5(2H)-carboxamide] |  | C (EC1.5>25 μM) | < 150%
O=C(OCC(F)(F)F)c1ccc2c(n1)N(C(=O)Nc1ccccn1)[C@H]1CCN2C1 [Example 278, (4S)-2,2,2-trifluoroethyl 5-(pyridin-2-ylcarbamoyl)-2,3,4,5-tetrahydro-1,4-methanopyrido[2,3-b][1,4]diazepine-7-carboxylate] | > 150% | B (EC1.5 1-25 μM) | 
O=C(NCC(F)(F)F)c1nc2c(cc1Cl)N1CC[C@@H](C1)N2C(=O)Nc1ccccn1 [Example 279, (4S)-8-chloro-N5-(pyridin-2-yl)-N7-(2,2,2-trifluoroethyl)-3,4-dihydro-1,4-methanopyrido[2,3-b][1,4]diazepine-5,7(2H)-dicarboxamide] | > 150% | A (EC1.5<1 μM) | 
C[C@@H](NC(=O)c1nc2c(cc1Cl)N1CC[C@@H](C1)N2C(=O)Nc1ccccn1)C(F)(F)F [Example 280, (4S)-8-chloro-N5-(pyridin-2-yl)-N7-((R)-1,1,1-trifluoropropan-2-yl)-3,4-dihydro-1,4-methanopyrido[2,3-b][1,4]diazepine-5,7(2H)-dicarboxamide] | > 150% | A (EC1.5<1 μM) | 
Cc1ncc(-c2ccnc(NC(=O)N3c4nc(C(=O)N[C@H](C)C(F)(F)F)c(Cl)cc4N4CC[C@H]3C4)c2)o1 [Example 281, (4S)-8-chloro-N5-(4-(2-methyloxazol-5-yl)pyridin-2-yl)-N7-((R)-1,1,1-trifluoropropan-2-yl)-3,4-dihydro-1,4-methanopyrido[2,3-b][1,4]diazepine-5,7(2H)-dicarboxamide] | > 150% | B (EC1.5 1-25 μM) | 
C[C@@H](NC(=O)c1nc2c(cc1Cl)N1CC[C@@H](C1)N2C(=O)Nc1cc(-c2cnco2)ccn1)C(F)(F)F [Example 282, (4S)-8-chloro-N5-(4-(oxazol-5-yl)pyridin-2-yl)-N7-((R)-1,1,1-trifluoropropan-2-yl)-3,4-dihydro-1,4-methanopyrido[2,3-b][1,4]diazepine-5,7(2H)-dicarboxamide] | > 150% | A (EC1.5<1 μM) | 
C[C@@H](NC(=O)c1nc2c(cc1F)N1CC[C@@H](C1)N2C(=O)Nc1cc(OC[C@H](O)CO)ccn1)C(F)(F)F [Example 283, (4S)—N5-(4-((R)-2,3-dihydroxypropoxy)pyridin-2-yl)-8-fluoro-N7-((R)-1,1,1-trifluoropropan-2-yl)-3,4-dihydro-1,4-methanopyrido[2,3-b][1,4]diazepine-5,7(2H)-dicarboxamide] | > 150% | A (EC1.5<1 μM) | 
COc1cc2c(nc1C(=O)NCC(F)(F)F)N(C(=O)Nc1ccccn1)[C@H]1CCN2C1 [Example 284, (4S)-8-methoxy-N5-(pyridin-2-yl)-N7-(2,2,2-trifluoroethyl)-3,4-dihydro-1,4-methanopyrido[2,3-b][1,4]diazepine-5,7(2H)-dicarboxamide] | > 150% | A (EC1.5<1 μM) | 
O=C(NCC(F)(F)F)c1nc2c(cc1O)N1CC[C@@H](C1)N2C(=O)Nc1ccccn1 [Example 285, (4S)-8-hydroxy-N5-(pyridin-2-yl)-N7-(2,2,2-trifluoroethyl)-3,4-dihydro-1,4-methanopyrido[2,3-b][1,4]diazepine-5,7(2H)-dicarboxamide] | > 150% | A (EC1.5<1 μM) | 
COc1cc(C(=O)NCC(F)(F)F)nc2c1N1CC[C@@H](C1)N2C(=O)Nc1ccccn1 [Example 286, (4S)-9-methoxy-N5-(pyridin-2-yl)-N7-(2,2,2-trifluoroethyl)-3,4-dihydro-1,4-methanopyrido[2,3-b][1,4]diazepine-5,7(2H)-dicarboxamide] |  | A (EC1.5<1 μM) | > 150%
Cc1cc(C(=O)NCC(F)(F)F)nc2c1N1CC[C@@H](C1)N2C(=O)Nc1ccccn1 [Example 287, (4S)-9-methyl-N5-(pyridin-2-yl)-N7-(2,2,2-trifluoroethyl)-3,4-dihydro-1,4-methanopyrido[2,3-b][1,4]diazepine-5,7(2H)-dicarboxamide] | > 150% | A (EC1.5<1 μM) | 
Cc1cc(C(=O)N[C@H](C)C(F)(F)F)nc2c1N1CC[C@@H](C1)N2C(=O)Nc1ccccn1 [Example 288, (4S)-9-methyl-N5-(pyridin-2-yl)-N7-((R)-1,1,1-trifluoropropan-2-yl)-3,4-dihydro-1,4-methanopyrido[2,3-b][1,4]diazepine-5,7(2H)-dicarboxamide] | > 150% | A (EC1.5<1 μM) | 
